Data published in patent publication US20140221499A1, “NOVEL RODENT CONTROL AGENTS AND USES THEREOF” (priority 2011, published 2014).

Target: T1, rTAAR8c (Rattus norvegicus, UniProt Q923Y0)
T1 construct: Full Taar coding regions were cloned into pcDNA3.1; expressed in transfected cells; host or cells: HEK293
T1 sequence (Q923Y0 1-344): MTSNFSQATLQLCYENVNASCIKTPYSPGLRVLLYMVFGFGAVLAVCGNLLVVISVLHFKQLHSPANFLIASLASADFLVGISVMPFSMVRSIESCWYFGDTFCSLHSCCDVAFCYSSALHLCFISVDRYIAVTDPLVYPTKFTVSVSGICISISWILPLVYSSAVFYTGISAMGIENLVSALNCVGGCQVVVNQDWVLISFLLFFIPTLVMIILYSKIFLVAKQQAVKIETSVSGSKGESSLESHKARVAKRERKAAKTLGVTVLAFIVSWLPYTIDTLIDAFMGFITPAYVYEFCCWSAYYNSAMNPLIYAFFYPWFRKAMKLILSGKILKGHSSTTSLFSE
Assay: CRE-SEAP reporter gene assay in HEK293 cells transfected with rTAAR8c
Format: cell-based
Details: FIG. 11A, functional with or without 'Rho tag', EC50 ± s.e.m., 4-parameter Hill equation
Protocol: FIG. 11 illustrates the dose-dependent responses of TAARs to amines. HEK293 cells were cotransfected with plasmids encoding CRE-SEAP and rTAARs (a) or mTAARs (b), incubated with concentrations of ligands indicated, and assayed for reporter activity (triplicates±s.d.). EC50 values (±s.e.m, bottom right) were calculated using SigmaPlot (Systat Software) and a 4-parameter Hill equation.
The following mixes (10 μM of each indicated compounds) were tested for their ability to activate rat TAARs. Mix 1: butylamine, dibutylamine, hexylamine. Mix 2: 2-aminopentane, isoamylamine, isobutylamine, isopropylamine. Mix 3: N,N-dimethylcyclohexylamine, 1-methylindole, tryptamine, phenylethylamine. Mix 4: indole, 1-methylpyrrolidine, 1-methylpiperidine, pyrrolidine. […]
Full Taar coding regions were cloned into pcDNA3.1-(Invitrogen) with or without a 5′ DNA extension of 69 bp encoding the first 20 amino acids of bovine rhodopsin followed by a cloning linker ([…]). […] Fluorescence was measured on an EnVision plate reader (Perkin Elmer) and SEAP activity graphed as relative fluorescence of a phosphatase substrate.
Here, we set out to identify agonists for additional mouse and rat TAARs. […] Transfected cells were incubated with test chemicals, and phosphatase activity was quantified with a fluorescent substrate as a reporter for TAAR activation. […]

Question: Which EC50 does the source give for `CN(C)C1CCCCC1` [N,N-DIMETHYLCYCLOHEXYLAMINE, N,N-dimethylcyclohexylamine] here?
Answer: 550 ± 190 nM
